Tests used:
[1] = cited from earlier work
[2] = Dissolution of bilayer time release multi-B vitamin tablets, USP Apparatus 2 (paddle), HPLC; format: physicochemical
Method: To investigate the effect of basic yeast on the dissolution profile of folic acid from vitamin B time release tablet, five formulas (Table 2) with different amounts of yeast were tested. The amount of yeast in the modified release layer was kept constant at 30 mg and included at least 15% hydroxypropyl methylcellulose (which acts as a controlled-release polymer).
Dissolution testing was performed using a qualified Sotax dissolution tester operated as USP Apparatus 2 (paddle) at 75 rpm and at 37±0.5° C. The media used for dissolution was different for different B vitamins and was selected to minimize degradation of these vitamins for the length of the study i.e. 8 hours. Each dissolution test was performed with 6 tablets. Sample aliquots were collected at 2, 4, 6, and 8 hour and filtered through 0.45-μm Millex-HV syringe filters, and analyzed by HPLC for dissolution samples.

[3] = USP <711> in vitro dissolution of Nutrilite Vitamin B formulation NF6853; format: physicochemical
Text: The USP requirement for instant release vitamins is for not less than 75% of label claim to be released within one hour.

| Compound | Solubility in Water (Per 100 ml water) [1] [g per 100 ml water] | further results |
| --- | --- | --- |
| O=C(O)CCCC[C@@H]1SC[C@@H]2NC(=O)N[C@@H]21 [Biotin, biotin] | 0.022 | predicted release profile from modified release matrix ([2]; predicted from release of folic acid and thiamine and solubility order, biotin was not analyzed): intermediate release profile |
| Nc1nc2ncc(CNc3ccc(C(=O)N[C@@H](CCC(=O)O)C(=O)O)cc3)nc2c(=O)[nH]1 [Folic Acid, folic acid] | 0.016 | – |
| NC(=O)c1cccnc1 [Niacinamide (B3), niacinamide] | 69.1 | – |
| Cc1ncc(CO)c(CO)c1O [Pyridoxine (B6), pyridoxine] | 30.8 | – |
| Cc1cc2nc3c(=O)[nH]c(=O)nc-3n(C[C@H](O)[C@H](O)[C@H](O)CO)c2cc1C [Riboflavin (B2), riboflavin] | 0.010 | release of riboflavin (B2) within an hour ([3]; in vitro dissolution, meets USP requirement of not less than 75% of label claim within one hour): complete release; % release (input) ([3]; instant release layer of NF6853, 1 hour, cumulative release based on input): 77.12%; % release (LC) ([3]; instant release layer of NF6853, 1 hour, cumulative release based on label claim): 104%; release from the immediate release layer, % of the label claim ([2]; bi-layer tablet, immediate release layer): around 104% |
